The values below come from patent US7351737B2, “4-[(8-substituted)-6-chromanoyl]-and 4-[8-substituted)-chroman-6-YL-ethynyl]-benzoic and phenylacetic acids, their esters and salts having cytochrome P450RAI inhibitory activity” (Allergan, Inc., priority 2002, dated 2008).

In assay [1] the test system is skin of fuzzy rats. The assay is described as follows: Topical skin irritation test. The conditions noted are these: topical in acetone, daily Day 1-14, group average of grade 0-4. The assay is classed as in vivo, female fuzzy rats (Hsd:FUZZY-fz). The text has this: The topical retinoid all-trans-retinoic acid (ATRA) and oral retinoids such as 13-cis RA and etretinate are known to induce substantial skin irritation in humans. This irritation is a direct result of activation of the RAR nuclear receptors. Analysis of retinoid topical irritation is also a highly reproducable method of determining in vivo retinoid potency. The female fuzzy rats provide a convenient animal model of topical irritation, since retinoid-induced skin flaking and abrasion can be readily scored by eye, while their larger size than those of mice also allows multiple sampling of serum for clinical analyses. Topical application of P450RAI inhibitors should cause an increase in the endogenous levels of ATRA that would result in ATRA-induced irritation in skin of hairless mice. In these tests female fuzzy rats ((Hsd:FUZZY-fz), 6-7 weeks old, were obtained from Harlan Sprague-Dawley (Indianapolis, Ind.). The animals were about 8-9 weeks old at the start of the experiments. Food (Purina Rodent Chow 5001) and water purified by reverse osmosis were provided ad libitum. The rats were housed individually throughout the dosing period. Test chemicals were dissolved in acetone (vehicle) for application to the backs of the rats. Two days prior to actual administration of the test compounds, rats were handled daily and dosed with vehicle at a volume of 0.5 ml/kg. Starting on Day 1 thought Day 14 (dosing period), animals were dosed with the vehicle or compound(s) according to their group assignment. The rats in the tests were observed daily and the dorsal skin was graded for the degree of erythema/eschar and overall appearance. The scoring was in accordance with Table 2, below. [table] Daily group average was calculated by dividing the sum of the individual grade by the number of animals in each treatment group. The attached data in Table 3 indicates the retinoid-mimetic effects of some P450RAI inhibitors on the skin of fuzzy rats in the above described tests and in accordance with the above-indicated scoring.

The target of assay [2] is T1, RARβ (Homo sapiens, UniProt P10826).
T1 sequence (P10826 183-417 limits assumed): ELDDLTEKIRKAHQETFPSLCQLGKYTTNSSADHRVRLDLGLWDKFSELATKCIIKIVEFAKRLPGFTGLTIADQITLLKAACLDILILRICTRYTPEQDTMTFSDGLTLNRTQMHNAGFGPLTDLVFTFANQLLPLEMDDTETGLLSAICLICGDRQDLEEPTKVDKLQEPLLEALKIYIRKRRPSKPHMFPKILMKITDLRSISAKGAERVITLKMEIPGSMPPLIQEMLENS
Kind of assay: chimeric receptor transactivation assay, RARβ. It is filed as cell-based. The conditions noted are these: first item of cell EC50/(EFFICACY)/Kd, read-out: RAR β EC50. The source says: (§1) Assays described below measure the ability of a compound to bind to, and/or activate various retinoid receptor subtypes. When in these assays a compound binds to a given receptor subtype and activates the transcription of a reporter gene through that subtype, then the compound is considered an agonist of that receptor subtype. […] In the below described assays the ability of the compounds to bind to RARα, RARβ, RARγ, RXRα, RXRβ and RXRγ receptors, and the ability or inability of the compounds to activate transcription of a reporter gene through these receptor subtypes can be tested.
As far as specific assays are concerned, a chimeric receptor transactivation assay which tests for agonist-like activity in the RARα, RARβ, and RARγ, receptor subtypes, and which is based on work published by Feigner P. L. and Holm M. (1989) Focus, 112 is described in detail in U.S. Pat. No. 5,455,265. The specification of U.S. Pat. No. 5,455,265 is hereby expressly incorporated by reference. The numeric results obtained with several preferred compounds of this invention in this assay are shown below in Table 1. […]

Assay [3] concerns the target T2, RARγ (Homo sapiens, UniProt P13631).
T2 sequence (P13631 185-419 limits assumed): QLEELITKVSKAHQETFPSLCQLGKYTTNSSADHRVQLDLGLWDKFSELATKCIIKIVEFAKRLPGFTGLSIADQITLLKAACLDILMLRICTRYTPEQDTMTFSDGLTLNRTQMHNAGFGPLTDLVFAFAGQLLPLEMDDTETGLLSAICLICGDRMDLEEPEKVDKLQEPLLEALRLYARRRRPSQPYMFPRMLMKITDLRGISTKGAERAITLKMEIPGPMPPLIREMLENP
Kind of assay: chimeric receptor transactivation assay, RARγ. It is filed as cell-based. The conditions noted are these: for RAR γ (EFFICACY): value in brackets.
Excerpt: as §1
As far as specific assays are concerned, a chimeric receptor transactivation assay which tests for agonist-like activity in the RARα, RARβ, and RARγ, receptor subtypes, and which is based on work published by Feigner P. L. and Holm M. (1989) Focus, 112 is described in detail in U.S. Pat. No. 5,455,265. The specification of U.S. Pat. No. 5,455,265 is hereby expressly incorporated by reference. The numeric results obtained with several preferred compounds of this invention in this assay are shown below in Table 1.
A holoreceptor transactivation assay and a ligand binding assay which measure the antagonist/agonist like activity of the compounds of the invention, or their ability to bind to the several retinoid receptor subtypes, respectively, are described in published PCT Application No. WO WO93/11755 (particularly on pages 30-33 and 37-41) published on Jun. 24, 1993, the specification of which is also incorporated herein by reference. A detailed experimental procedure for holoreceptor transactivations has been described by Heyman et al. Cell 68, 397-406, (1992); Allegretto et al. J. Biol. Chem. 268, 26625-26633, and Mangelsdorf et al. The Retinoids: Biology, Chemistry and Medicine, pp 319-349, Raven Press Ltd., New York, which are expressly incorporated herein by reference. The results obtained in this assay are expressed in EC50 numbers, as they are also in the chimeric receptor transactivation assay. The results of ligand binding assay are expressed in Kd numbers. (See Cheng et al. Biochemical Pharmacology Vol. 22 pp 3099-3108, expressly incorporated herein by reference.)

Regarding `C#Cc1cc(C(=O)Oc2ccc(CC(=O)O)cc2)cc2c1OC(C)(C)CC2(C)C` [Compound 1, 8-Ethynyl-2,2,4,4-tetramethyl-chroman-6-carboxylic acid 4-carboxymethyl-phenyl ester], the “Irritation Score on day 14” value in assay [1] (3% compound + 0.1% retinol) is given as 1; in assay [1] (3% compound alone), 2.6.
As for `C#Cc1cc(C(=O)Oc2ccc(CC(=O)OCC)cc2)cc2c1OC(C)(C)CC2(C)C` [Compound 2, 8-Ethynyl-2,2,4,4-tetramethyl-chroman-6-carboxylic acid 4-ethoxycarbonylmethyl-phenyl ester], the figures for the “Irritation Score on day 14” value in assay [1] (1% compound + 0.1% retinol) and in assay [1] (1% compound alone) were 1.6 and 0, respectively.
Taken in the same sequence, the figures for `C#Cc1cc(C(=O)Oc2ccc(CC(=O)OCOC(C)=O)cc2)cc2c1OC(C)(C)CC2(C)C` [Compound 3, 8-Ethynyl-2,2,4,4-tetramethyl-chroman-6-carboxylic acid 4-acetoxymethoxycarbonylmethyl-phenyl ester] were 2.4 and 0.
The EC50 is the concentration that produces a half-maximal response. Turning to `C#Cc1cc(C(=O)Oc2ccc(CC(=O)O)c(F)c2)cc2c1OC(C)(C)CC2(C)C` [Compound 4, 8-Ethynyl-2,2,4,4-tetramethyl-chroman-6-carboxylic acid-4-carboxymethyl-3-fluoro-phenyl ester], the EC50 in assay [2] worked out at 263 nM. The “RAR γ (EFFICACY)” value in assay [3] was 20. Besides, the “Irritation Score on day 14” value in assay [1] (1% compound + 0.1% retinol) came out at 3.4; in assay [1] (1% compound alone), 1.4.
As to `C#Cc1cc(C(=O)Oc2ccc(CC(=O)OCOC(C)=O)c(F)c2)cc2c1OC(C)(C)CC2(C)C` [Compound 5, 8-Ethynyl-2,2,4,4-tetramethyl-chroman-6-carboxylic acid 4-acetoxymethoxycarbonylmethyl-3-fluoro-phenyl ester], the figures for the “Irritation Score on day 14” value in assay [1] (0.1% compound + 0.1% retinol) and in assay [1] (0.1% compound alone) were 2.2 and 0.4, respectively.
On to `C#Cc1cc(C#Cc2ccc(CC(=O)O)cc2)cc2c1OC(C)(C)CC2(C)C` [Compound 40, [4-(8-Ethynyl-2,2,4,4-tetramethyl-chroman-6-ylethynyl)-phenyl]-acetic acid], for which the EC50 in assay [2] worked out at 101 nM; in assay [3] (first item of cell EC50/(EFFICACY)/Kd, read-out: RAR γ EC50), 149 nM. For the same compound, the “RAR γ (EFFICACY)” value in assay [3] turned out to be 30.
`C#Cc1cc(C#Cc2ccc(CC(=O)O)c(F)c2)cc2c1OC(C)(C)CC2(C)C` [Compound 41, [4-(8-Ethynyl-2,2,4,4-tetramethyl-chroman-6-ylethynyl)-2-fluoro-phenyl]-acetic acid]: the “RAR γ (EFFICACY)” value in assay [3] is reported as 20.
